Laboratory results published in patent publication US9700546B2, “Trivalent chromium compounds, compositions and methods of use” (INTERHEALTH NUTRACEUTICALS, INC., priority 2006, dated 2017).

What was measured:
[1] = tested on: Obese Zucker rats; details: rat, in vivo
[2] = tested on: Obese Zucker rats; assay: In vivo assessment in obese Zucker rats: body weight and food intake; details: obese Zucker rats, daily 400 μg Cr(III)/kg, mean; for Food Intake 5 wks: at 5 weeks; for Food Intake 7 wks: at 7 weeks
[3] = tested on: Obese Zucker rats; assay: In vivo assessment in obese Zucker rats: blood lipid profile (total cholesterol, triglycerides, HDL); details: daily 400 μg Cr(III)/kg, 8 weeks, mean
[4] = tested on: Obese Zucker rats; assay: In vivo assessment in obese Zucker rats: other vascular inflammation markers (cAMP, TNFα, IL-6, OxyDNA); details: obese Zucker rats, daily 400 μg Cr(III)/kg, 8 weeks, mean ± SE; for OxyDNA: oxidative DNA damage
[5] = tested on: Obese Zucker rats; assay: In vivo assessment in obese Zucker rats: vascular inflammation markers (MCP-1, CRP, RBP-4, leptin, ICAM, adiponectin); details: obese Zucker rats, daily 400 μg Cr(III)/kg, 8 weeks, mean
[6] = tested on: Obese Zucker rats; assay: In vivo assessment in obese Zucker rats: key biological parameters (fasting glucose, HbA1c, vitamin C, GSH, RBC lipid peroxidation); details: obese Zucker rats, daily 400 μg Cr(III)/kg, 8 weeks, mean; for RBC Lipid Peroxidase: malondialdehyde by thiobarbituric acid; for Fasting Glucose: fasted overnight; for Vitamin C: plasma

SMILES	ALT (Alanine Aminotransferease) [1] [u/L]	AP (Alkaline phosphatase) [1] [u/L]	AST (Aspartate Aminotransferase) [1] [u/L]	BUN (Blood Urea Nitrogen) [1] [mg/dL]	CRT (Creatinine) [1] [mg/dL]	Total Bilirubin [1] [mg/dL]	Food Intake 5 wks [2] [g/day]	Food Intake 7 wks [2] [g/day]	HDL [3] [mg/dL]	Total Cholesterol [3] [mg/dL]	Triglyceride [3] [mg/dL]	IL-6 [4] [pg/mL]	TNFα [4] [pg/mL]	cAMP [4] [pmol/mL]	OxyDNA [4] [ng/mL]	Leptin [5] [pg/mL]	RBP-4 [5] [ng/mL]	Adiponectin ([5]; plasma, ELISA) [ng/mL]	CRP ([5]; plasma, ELISA) [ng/mL]	ICAM ([5]; plasma, ELISA) [pg/mL]	further results
N=C(N)NCCC[C@H](N)C(=O)O [Arg, Arginine, reference compound]	179.20	35.50	276.80	21.00	0.40	0.00	37.73	46.80	68.69	173.96	485.74	97.80 ± 0.93	25.45 ± 0.93	34.98 ± 0.92	62.90 ± 2.71	431.72	47211.67	9958.63	617.34	17940.91	Total Chol/HDL [3]: 2.86 ratio; MCP-1 ([5]; plasma, ELISA): 3878.85 pg/mL; RBC Lipid Peroxidase [6]: 2.23 nmol/mL; Fasting Glucose [6]: 446.60 mg/dL; GSH [6]: 4.77 µmol/g; HbA1c [6]: 15.88%; Vitamin C [6]: 0.14 mg %
N[C@@H](CS)C(=O)O [Cys, Cysteine, reference compound]	119.20	36.40	218.20	18.50	0.42	0.00	39.40	39.87	68.26	183.58	503.57	95.33 ± 2.33	24.28 ± 3.84	32.94 ± 1.79	54.56 ± 5.69	477.65	50915.00	11532.37	551.39	18512.88	RBC Lipid Peroxidase [6]: 2.34 nmol/mL; Fasting Glucose [6]: 483.49 mg/dL; GSH [6]: 4.70 µmol/g; HbA1c [6]: 15.17%; Vitamin C [6]: 0.13 mg %
